Patent publication US7192983B2, “N-protected/N-substituted-beta-amino hydroxy sulfonates” (G.D. Searle & Co., priority 1995, dated 2007)

Assay: Determination of storage stability at ambient temperature (purity by HPLC)
Format: physicochemical
Protocol: 2S-[Bis (phenylmethyl) amino]-1-hydroxy-3-phenylpropyl sulfonic acid, sodium salt (5 grams) was treated with stirring with an aqueous solution of 5 grams of potassium carbonate in 50 mL of water at room temperature. The aqueous solution was extracted once with a 50 mL portion of ethyl acetate. The organic solvent solutions were combined and removed under reduced pressure. The residue was dissolved in the tetrahydrofuran (THF), filtered through a cotton filter plug and the solvent removed under reduced pressure. […] The samples were placed on the column diluted in 90% hexane, 5% isopropanol and 5% tert-butylmethyl ether.
The experiment extended through 61 days with purity determinations made on days 0 (t=0), 3 (t=3), 6 (t=6), 18 (t=18) and 61 (t=61). A sample of the salt was treated with aqueous potassium carbonate and extracted with ethyl acetate on day 0. The ethyl acetate was removed under reduced pressure to provide the aldehyde and this sample was used as a t=0 […] reference standard for the stability determination (“Aldehyde Sample”). The t=0 sample of the aldehyde was then stored at ambient temperature in a capped, brown glass bottle side by side with the stored sample of the salt. The purity of the salt was then measured on days 3 (t=3), 8 (t=8), 15 (t=15) and 21 (t=21).

For `O=C[C@H](Cc1ccccc1)N(Cc1ccccc1)Cc1ccccc1` [Aldehyde Sample, 2S-[bis(phenylmethyl)amino]-3-phenylpropanal], the “% aldehyde remaining” value (day 8, stored at ambient temperature in capped brown glass bottle) was 64%, the “% aldehyde remaining” value (day 15, stored at ambient temperature in capped brown glass bottle) was 23% and the “% aldehyde remaining” value (day 18, stored at ambient temperature in capped brown glass bottle) was 10%.
